Experimental data: ChEMBL document CHEMBL1201862, “PubChem BioAssay data set” (2004)
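Briefly, cells in 96-well plates were exposed to five compound concentrations for 48 h, and endpoints were estimated by linear interpolation. Here, GI50 denotes the concentration required for 50% inhibition of growth.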 The source made the active and inactive calls. Cut-off read from the data, not from the text of the source: active = GI50 up to about 1.1 µM and inactive = higher.

What was measured:
Assay in all cases: growth of human tumour cells (NCI), 48 h
HCC 2998 = test system: HCC 2998
HCT-116 = test system: HCT-116
TK-10 = test system: TK-10
UACC-257 = test system: UACC-257
NCI/ADR-RES = test system: NCI/ADR-RES
MDA-MB-231 = test system: MDA-MB-231
T47D = test system: T47D
SR = test system: SR
UACC-62 = test system: UACC-62
SK-OV-3 = test system: SK-OV-3
SK-MEL-5 = test system: SK-MEL-5
NCI-H23 = test system: NCI-H23
DU-145 = test system: DU-145
OVCAR-5 = test system: OVCAR-5
IGROV-1 = test system: IGROV-1
SK-MEL-28 = test system: SK-MEL-28
HOP-62 = test system: HOP-62
ACHN = test system: ACHN
BT-549 = test system: BT-549
OVCAR-8 = test system: OVCAR-8
SK-MEL-2 = test system: SK-MEL-2
SW-620 = test system: SW-620
SN12C = test system: SN12C
OVCAR-3 = test system: OVCAR-3
NCI-H522 = test system: NCI-H522
HT-29 = test system: HT-29
MDA-MB-435 = test system: MDA-MB-435
KM12 = test system: KM12
HL-60 = test system: HL-60
MCF7 = test system: MCF7
RXF 393 = test system: RXF 393
U-251 = test system: U-251
UO-31 = test system: UO-31
786-0 = test system: 786-0
A498 = test system: A498
Malme-3M = test system: Malme-3M
SF-295 = test system: SF-295
CAKI-1 = test system: CAKI-1
SNB-75 = test system: SNB-75
MOLT-4 = test system: MOLT-4
MDA-N = test system: MDA-N
NCI-H226 = test system: NCI-H226
A549 = test system: A549
LOX IMVI = test system: LOX IMVI
COLO 205 = test system: COLO 205
M14 = test system: M14
RPMI-8226 = test system: RPMI-8226
PC-3 = test system: PC-3
K562 = test system: K562
CCRF-CEM = test system: CCRF-CEM
Hs-578T = test system: Hs-578T
SF-268 = test system: SF-268
HOP-92 = test system: HOP-92
EKVX = test system: EKVX
NCI-H460 = test system: NCI-H460
SNB-19 = test system: SNB-19
HCT-15 = test system: HCT-15
SF-539 = test system: SF-539
OVCAR-4 = test system: OVCAR-4

CCOC(=O)c1cc(C)nc2c1c(=O)n(-c1ccccc1)c(=O)n2CCCCN1CCN(c2ncccn2)CC1
GI50 (HCC 2998): > 100 µM (inactive) | GI50 (HCT-116): 85.5 µM (inactive) | GI50 (TK-10): > 100 µM (inactive) | GI50 (UACC-257): 52.4 µM (inactive) | GI50 (NCI/ADR-RES): > 100 µM (inactive) | GI50 (MDA-MB-231): 80.7 µM (inactive) | GI50 (T47D): 43.5 µM (inactive) | GI50 (SR): 29.9 µM (inactive) | GI50 (UACC-62): 37.2 µM (inactive) | GI50 (SK-OV-3): > 100 µM (inactive) | GI50 (SK-MEL-5): 35.2 µM (inactive) | GI50 (NCI-H23): > 100 µM (inactive) | GI50 (DU-145): > 100 µM (inactive) | GI50 (OVCAR-5): > 100 µM (inactive) | GI50 (IGROV-1): > 100 µM (inactive) | GI50 (SK-MEL-28): > 100 µM (inactive) | GI50 (HOP-62): > 100 µM (inactive) | GI50 (ACHN): > 100 µM (inactive) | GI50 (BT-549): 45.1 µM (inactive) | GI50 (OVCAR-8): > 100 µM (inactive) | GI50 (SK-MEL-2): > 100 µM (inactive) | GI50 (SW-620): > 100 µM (inactive) | GI50 (SN12C): > 100 µM (inactive) | GI50 (OVCAR-3): 94 µM (inactive) | GI50 (NCI-H522): > 100 µM (inactive) | GI50 (HT-29): > 100 µM (inactive) | GI50 (MDA-MB-435): > 100 µM (inactive) | GI50 (KM12): > 100 µM (inactive) | GI50 (HL-60): 25.4 µM (inactive) | GI50 (MCF7): > 100 µM (inactive) | GI50 (RXF 393): > 100 µM (inactive) | GI50 (U-251): > 100 µM (inactive) | GI50 (UO-31): 38.5 µM (inactive) | GI50 (786-0): > 100 µM (inactive) | GI50 (A498): 20.8 µM (inactive) | GI50 (Malme-3M): > 100 µM (inactive) | GI50 (SF-295): > 100 µM (inactive) | GI50 (CAKI-1): 23.4 µM (inactive) | GI50 (SNB-75): 59 µM (inactive) | GI50 (MOLT-4): 11.3 µM (inactive) | GI50 (MDA-N): > 100 µM (inactive) | GI50 (NCI-H226): > 100 µM (inactive) | GI50 (A549): > 100 µM (inactive) | GI50 (LOX IMVI): 56.9 µM (inactive) | GI50 (COLO 205): 60.1 µM (inactive) | GI50 (M14): > 100 µM (inactive) | GI50 (RPMI-8226): 23.8 µM (inactive) | GI50 (PC-3): 61.4 µM (inactive) | GI50 (K562): 39.1 µM (inactive) | GI50 (CCRF-CEM): 31.8 µM (inactive) | GI50 (Hs-578T): > 100 µM (inactive) | GI50 (SF-268): > 100 µM (inactive) | GI50 (HOP-92): 34.6 µM (inactive) | GI50 (EKVX): > 100 µM (inactive)

Cc1ccc([S+]([O-])(=Nc2ccccc2)C(C(C)C)C(C)(C)Cl)cc1 (stereo not given)
GI50 (HCC 2998): 21.6 µM (inactive) | GI50 (HCT-116): 16.9 µM (inactive) | GI50 (TK-10): 21.4 µM (inactive) | GI50 (NCI-H460): 4.21 µM (inactive) | GI50 (UACC-257): 10.8 µM (inactive) | GI50 (NCI/ADR-RES): 15 µM (inactive) | GI50 (MDA-MB-231): 17.2 µM (inactive) | GI50 (T47D): 23.6 µM (inactive) | GI50 (SR): 16.1 µM (inactive) | GI50 (UACC-62): 30.9 µM (inactive) | GI50 (SK-OV-3): > 50 µM (inactive) | GI50 (SNB-19): 8.67 µM (inactive) | GI50 (SK-MEL-5): 4.06 µM (inactive) | GI50 (NCI-H23): 9.91 µM (inactive) | GI50 (DU-145): > 50 µM (inactive) | GI50 (OVCAR-5): 22.1 µM (inactive) | GI50 (IGROV-1): > 50 µM (inactive) | GI50 (HOP-62): > 50 µM (inactive) | GI50 (ACHN): 31.6 µM (inactive) | GI50 (BT-549): 18.1 µM (inactive) | GI50 (OVCAR-8): > 50 µM (inactive) | GI50 (SK-MEL-2): 12.5 µM (inactive) | GI50 (SW-620): 20.9 µM (inactive) | GI50 (HCT-15): 17 µM | GI50 (SN12C): 22.4 µM (inactive) | GI50 (OVCAR-3): 29.6 µM (inactive) | GI50 (NCI-H522): 16 µM (inactive) | GI50 (HT-29): 17.1 µM (inactive) | GI50 (MDA-MB-435): 10.7 µM (inactive) | GI50 (KM12): 13.5 µM (inactive) | GI50 (HL-60): 7.67 µM (inactive) | GI50 (MCF7): 20.6 µM (inactive) | GI50 (RXF 393): 30.1 µM (inactive) | GI50 (U-251): 16.7 µM (inactive) | GI50 (UO-31): 18.8 µM (inactive) | GI50 (786-0): 24.2 µM (inactive) | GI50 (A498): 18.5 µM (inactive) | GI50 (Malme-3M): 27.9 µM (inactive) | GI50 (SF-295): 16.3 µM (inactive) | GI50 (CAKI-1): 14.5 µM (inactive) | GI50 (SNB-75): > 50 µM (inactive) | GI50 (MOLT-4): 10.5 µM (inactive) | GI50 (MDA-N): 16 µM (inactive) | GI50 (NCI-H226): 2.72 µM (inactive) | GI50 (A549): 16.2 µM (inactive) | GI50 (LOX IMVI): 25.2 µM (inactive) | GI50 (COLO 205): 0.91 µM (active) | GI50 (M14): 18.9 µM (inactive) | GI50 (SF-539): 15.9 µM (inactive) | GI50 (RPMI-8226): 14 µM (inactive) | GI50 (PC-3): 16.1 µM (inactive) | GI50 (K562): 16.7 µM (inactive) | GI50 (CCRF-CEM): 9.1 µM (inactive) | GI50 (Hs-578T): 29.6 µM (inactive) | GI50 (SF-268): 44.4 µM (inactive) | GI50 (HOP-92): 30.1 µM (inactive) | GI50 (OVCAR-4): 22.2 µM (inactive) | GI50 (EKVX): 11.4 µM (inactive)

COc1cc2c3c(c1O)C1(C=CC(=O)C=C1)CC3N(C)CC2 (stereo not given) [GLAZIOVINE]
GI50 (HCC 2998): 12.4 µM (inactive) | GI50 (HCT-116): 3.81 µM (inactive) | GI50 (TK-10): 21.6 µM (inactive) | GI50 (NCI-H460): 4.11 µM (inactive) | GI50 (UACC-257): 13.4 µM (inactive) | GI50 (NCI/ADR-RES): 2.72 µM (inactive) | GI50 (MDA-MB-231): 4.86 µM (inactive) | GI50 (T47D): 11.7 µM (inactive) | GI50 (SR): 3.3 µM (inactive) | GI50 (UACC-62): 11.1 µM (inactive) | GI50 (SK-OV-3): 31.3 µM (inactive) | GI50 (SNB-19): 14.3 µM (inactive) | GI50 (SK-MEL-5): 14 µM (inactive) | GI50 (NCI-H23): 11.2 µM (inactive) | GI50 (DU-145): 13.2 µM (inactive) | GI50 (OVCAR-5): 19.3 µM (inactive) | GI50 (IGROV-1): 6.22 µM (inactive) | GI50 (SK-MEL-28): 13.2 µM (inactive) | GI50 (HOP-62): 13.1 µM (inactive) | GI50 (ACHN): 14.5 µM (inactive) | GI50 (BT-549): 5.78 µM (inactive) | GI50 (OVCAR-8): 10.4 µM (inactive) | GI50 (SK-MEL-2): 10.7 µM (inactive) | GI50 (SW-620): 5.89 µM (inactive) | GI50 (HCT-15): 5.96 µM | GI50 (SN12C): 9.18 µM (inactive) | GI50 (OVCAR-3): 5.37 µM (inactive) | GI50 (NCI-H522): 1.93 µM (inactive) | GI50 (HT-29): 8.95 µM (inactive) | GI50 (MDA-MB-435): 11 µM (inactive) | GI50 (KM12): 4.48 µM (inactive) | GI50 (HL-60): 2.79 µM (inactive) | GI50 (MCF7): 5.14 µM (inactive) | GI50 (RXF 393): 6.14 µM (inactive) | GI50 (U-251): 4.26 µM (inactive) | GI50 (786-0): 3.17 µM (inactive) | GI50 (A498): 17.7 µM (inactive) | GI50 (Malme-3M): 11.3 µM (inactive) | GI50 (SF-295): 12 µM (inactive) | GI50 (CAKI-1): 7.29 µM (inactive) | GI50 (SNB-75): 4.57 µM (inactive) | GI50 (MOLT-4): 4.26 µM (inactive) | GI50 (MDA-N): 10.7 µM (inactive) | GI50 (NCI-H226): 22 µM (inactive) | GI50 (A549): 22.4 µM (inactive) | GI50 (LOX IMVI): 2.77 µM (inactive) | GI50 (COLO 205): 5.4 µM (inactive) | GI50 (M14): 12.1 µM (inactive) | GI50 (SF-539): 10.1 µM (inactive) | GI50 (RPMI-8226): 14.8 µM (inactive) | GI50 (PC-3): 14.3 µM (inactive) | GI50 (K562): 5.2 µM (inactive) | GI50 (CCRF-CEM): 2.31 µM (inactive) | GI50 (Hs-578T): 14.4 µM (inactive) | GI50 (SF-268): 11 µM (inactive) | GI50 (HOP-92): 11.6 µM (inactive) | GI50 (OVCAR-4): 5.97 µM (inactive) | GI50 (EKVX): 8.41 µM (inactive)
